Measurements: ChEMBL document CHEMBL1687773 (Antimicrob Agents Chemother, 2010)
Calls of active or inactive are those of the source.

Tests used:
[1] = molecular target: Amine oxidase [flavin-containing] B (Homo sapiens, UniProt P27338); test: Inhibition of human MAO-B at up to 10 uM
[2] = Inhibition of human phosphodiesterase 4
[3] = system: PBMC; test: Cytotoxicity against human PBMC cells by aqueous nonradioactive cell proliferation assay; format: cell-based
[4] = molecular target: D(2) dopamine receptor (Homo sapiens) (UniProt P14416); test: Inhibition of human dopamine D2 receptor at up to 10 uM
D(2) dopamine receptor (Homo sapiens), sequence (P14416 whole entry): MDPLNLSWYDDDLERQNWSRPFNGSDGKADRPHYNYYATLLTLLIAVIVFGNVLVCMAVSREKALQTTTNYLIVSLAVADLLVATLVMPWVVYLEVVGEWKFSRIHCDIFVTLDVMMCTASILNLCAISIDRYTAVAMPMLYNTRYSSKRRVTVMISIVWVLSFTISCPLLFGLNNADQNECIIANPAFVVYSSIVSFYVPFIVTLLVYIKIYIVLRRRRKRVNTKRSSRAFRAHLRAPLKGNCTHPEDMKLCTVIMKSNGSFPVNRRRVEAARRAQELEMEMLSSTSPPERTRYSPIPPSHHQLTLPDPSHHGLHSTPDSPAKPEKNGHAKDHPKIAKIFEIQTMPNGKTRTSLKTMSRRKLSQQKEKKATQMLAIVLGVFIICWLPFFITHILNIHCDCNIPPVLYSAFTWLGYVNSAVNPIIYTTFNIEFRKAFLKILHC

[5] = system: Human immunodeficiency virus type 1 reverse transcriptase (Human immunodeficiency virus 1), Q72547 [E138K]; test: Inhibition of HIV1 histidine-tagged reverse transcriptase E138K mutant activity by primer extension assay
[6] = organism: Homo sapiens; test: Inhibition of human L-type calcium channel verapamil binding site at up to 10 uM
[7] = system: Human immunodeficiency virus 1; test: Ratio of EC50 for wild type HIV1 NL4-3 to EC50 for HIV1 NL4-3 harboring reverse transcriptase K103N mutant; format: functional
[8] = system: Human immunodeficiency virus 1; test: Antiviral activity against HIV1 NL4-3 infected in human SupT1 cells derived from 11 viral passages assessed as inhibition of viral replication after 21 days relative to drug sensitive HIV1 NL4-3; format: functional, SUP-T1
[9] = system: Human immunodeficiency virus type 1 reverse transcriptase (Human immunodeficiency virus 1), Q72547 [P236L]; test: Inhibition of HIV1 histidine-tagged reverse transcriptase P236L mutant activity by primer extension assay
[10] = molecular target: Opioid receptors; mu/kappa/delta (Homo sapiens) (UniProt P41145+P41143+P35372); test: Inhibition of human non-selective opioid receptor at up to 10 uM
Opioid receptors; mu/kappa/delta (Homo sapiens), sequence (P35372 whole entry, looked up): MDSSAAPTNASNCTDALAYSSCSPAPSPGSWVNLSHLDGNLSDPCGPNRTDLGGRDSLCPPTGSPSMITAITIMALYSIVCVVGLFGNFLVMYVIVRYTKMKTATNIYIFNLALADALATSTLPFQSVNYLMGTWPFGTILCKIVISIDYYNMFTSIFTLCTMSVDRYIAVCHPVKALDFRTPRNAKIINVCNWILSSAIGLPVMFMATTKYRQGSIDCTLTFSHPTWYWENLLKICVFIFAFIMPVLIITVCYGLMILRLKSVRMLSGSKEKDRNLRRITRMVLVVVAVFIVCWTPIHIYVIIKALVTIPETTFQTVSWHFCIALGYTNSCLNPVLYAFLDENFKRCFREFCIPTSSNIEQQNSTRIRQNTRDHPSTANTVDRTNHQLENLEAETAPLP
Opioid receptors; mu/kappa/delta (Homo sapiens), sequence (P41143 whole entry, looked up): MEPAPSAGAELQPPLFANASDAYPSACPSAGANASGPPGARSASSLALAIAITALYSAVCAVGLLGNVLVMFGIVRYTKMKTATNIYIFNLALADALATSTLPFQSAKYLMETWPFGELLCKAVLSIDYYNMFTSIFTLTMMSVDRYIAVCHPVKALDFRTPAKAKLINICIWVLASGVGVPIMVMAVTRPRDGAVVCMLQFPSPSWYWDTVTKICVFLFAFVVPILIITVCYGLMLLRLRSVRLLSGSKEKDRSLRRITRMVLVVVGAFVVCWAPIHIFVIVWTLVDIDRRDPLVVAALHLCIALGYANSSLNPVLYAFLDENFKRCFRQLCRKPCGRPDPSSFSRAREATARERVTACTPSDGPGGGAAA
Opioid receptors; mu/kappa/delta (Homo sapiens), sequence (P41145 whole entry, looked up): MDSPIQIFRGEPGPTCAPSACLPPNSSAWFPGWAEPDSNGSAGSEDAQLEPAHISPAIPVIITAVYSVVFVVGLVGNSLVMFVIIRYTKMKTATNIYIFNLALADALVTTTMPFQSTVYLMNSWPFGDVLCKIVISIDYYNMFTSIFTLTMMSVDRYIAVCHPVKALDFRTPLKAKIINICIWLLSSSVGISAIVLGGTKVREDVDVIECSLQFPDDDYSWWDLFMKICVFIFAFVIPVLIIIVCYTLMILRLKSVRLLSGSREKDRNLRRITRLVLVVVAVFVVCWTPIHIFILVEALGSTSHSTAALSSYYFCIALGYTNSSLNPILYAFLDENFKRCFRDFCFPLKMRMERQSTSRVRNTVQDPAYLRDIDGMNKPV

[11] = system: Human immunodeficiency virus 1; test: Ratio of EC50 for wild type HIV1 NL4-3 to EC50 for HIV1 NL4-3 harboring reverse transcriptase V106A, F227L mutant; format: functional
[12] = system: Human immunodeficiency virus 1; test: Antiviral activity against HIV1 NL4-3 harboring reverse transcriptase Y188C mutant infected in human HeLaP4 cells assessed as inhibition of viral replication after 5 days by beta-galactosidase reporter assay; format: functional, organism-based
[13] = molecular target: Muscarinic acetylcholine receptor (Homo sapiens) (UniProt P20309+P08173+P11229+P08172+P08912); test: Inhibition of human non-selective muscarinic receptor at up to 10 uM; format: protein assay
[14] = organism: Homo sapiens; test: Inhibition of human L-type calcium channel dihydropyridine binding site at up to 10 uM
[15] = system: Human immunodeficiency virus 1; test: Ratio of EC50 for wild type HIV1 NL4-3 to EC50 for HIV1 NL4-3 harboring reverse transcriptase Y188C mutant; format: functional
[16] = molecular target: T1, Human immunodeficiency virus type 1 reverse transcriptase (Human immunodeficiency virus 1, UniProt Q72547); test: Mixed non-competitive inhibition of HIV1 reverse transcriptase activity
[17] = system: Human immunodeficiency virus 1; test: Antiviral activity against wild type HIV1 NL4-3 infected in human HeLaP4 cells assessed as inhibition of viral replication after 5 days by beta-galactosidase reporter assay; format: functional, organism-based; conditions: Human immunodeficiency virus 1, NL4-3, HeLaP4, 120 h
[18] = molecular target: Type-1 angiotensin II receptor (Homo sapiens) (UniProt P30556); test: Inhibition of human AT1 receptor at up to 10 uM
Type-1 angiotensin II receptor (Homo sapiens), sequence (P30556 whole entry): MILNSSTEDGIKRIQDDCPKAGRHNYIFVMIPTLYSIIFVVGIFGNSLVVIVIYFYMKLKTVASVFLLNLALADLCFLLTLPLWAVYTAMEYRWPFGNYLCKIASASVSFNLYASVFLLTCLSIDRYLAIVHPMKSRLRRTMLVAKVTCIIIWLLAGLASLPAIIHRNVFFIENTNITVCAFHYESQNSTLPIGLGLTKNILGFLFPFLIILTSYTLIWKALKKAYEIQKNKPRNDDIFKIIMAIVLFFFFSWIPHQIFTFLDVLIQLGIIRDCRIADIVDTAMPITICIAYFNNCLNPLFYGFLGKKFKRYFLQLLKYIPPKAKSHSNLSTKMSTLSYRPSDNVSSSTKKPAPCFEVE

[19] = organism: Homo sapiens; test: Inhibition of human L-type calcium channel diltiazem binding site at up to 10 uM
[20] = molecular target: Adenosine receptor A1 (Homo sapiens) (UniProt P30542); test: Inhibition of human adenosine A1 receptor at up to 10 uM
Adenosine receptor A1 (Homo sapiens), sequence (P30542 whole entry): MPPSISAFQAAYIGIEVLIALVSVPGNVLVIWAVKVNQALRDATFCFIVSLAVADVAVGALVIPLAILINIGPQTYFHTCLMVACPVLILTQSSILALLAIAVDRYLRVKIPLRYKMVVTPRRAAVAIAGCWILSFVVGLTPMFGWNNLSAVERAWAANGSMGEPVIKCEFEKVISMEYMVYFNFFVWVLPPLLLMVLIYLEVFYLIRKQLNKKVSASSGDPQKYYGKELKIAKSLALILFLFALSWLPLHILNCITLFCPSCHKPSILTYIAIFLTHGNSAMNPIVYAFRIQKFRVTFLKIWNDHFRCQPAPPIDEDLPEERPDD

[21] = molecular target: D(1A) dopamine receptor (Homo sapiens) (UniProt P21728); test: Inhibition of human dopamine D1 receptor at up to 10 uM
D(1A) dopamine receptor (Homo sapiens), sequence (P21728 whole entry): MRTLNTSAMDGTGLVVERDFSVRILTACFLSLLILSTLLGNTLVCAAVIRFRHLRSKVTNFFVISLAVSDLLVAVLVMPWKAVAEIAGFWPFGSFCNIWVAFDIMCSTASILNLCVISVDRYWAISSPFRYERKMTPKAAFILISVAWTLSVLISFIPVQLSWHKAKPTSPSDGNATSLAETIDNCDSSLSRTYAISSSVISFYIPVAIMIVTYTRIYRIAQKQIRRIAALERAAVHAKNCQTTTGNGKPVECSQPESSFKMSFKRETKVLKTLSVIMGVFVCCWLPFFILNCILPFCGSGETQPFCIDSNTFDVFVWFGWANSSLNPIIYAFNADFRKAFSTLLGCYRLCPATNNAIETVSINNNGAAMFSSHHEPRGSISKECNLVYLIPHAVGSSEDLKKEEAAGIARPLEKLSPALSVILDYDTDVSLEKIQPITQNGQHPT

[22] = system: Human immunodeficiency virus type 1 reverse transcriptase (Human immunodeficiency virus 1), Q72547 [F227L]; test: Inhibition of HIV1 histidine-tagged reverse transcriptase F227L mutant activity by primer extension assay
[23] = system: Human immunodeficiency virus 1; test: Ratio of EC50 for wild type HIV1 NL4-3 to EC50 for HIV1 NL4-3 harboring reverse transcriptase P236L mutant; format: functional
[24] = system: Human immunodeficiency virus type 1 reverse transcriptase (Human immunodeficiency virus 1), Q72547 [Y188C]; test: Inhibition of HIV1 histidine-tagged reverse transcriptase Y188C mutant activity by primer extension assay
[25] = system: Human immunodeficiency virus 1; format: functional, organism-based; conditions: NL4-3, HeLaP4
[26] = system: Human immunodeficiency virus 1; test: Antiviral activity against HIV1 NL4-3 harboring reverse transcriptase L100I, K103Q, H221H/Y mutant infected in human SupT1 cells derived from 11 viral passages with efavirenz assessed as inhibition of viral replication after 21 days relative to drug sensitive HIV1 NL4-3; format: functional, SUP-T1
[27] = system: Human immunodeficiency virus 1; test: Antiviral activity against HIV1 NL4-3 harboring reverse transcriptase M184V mutant infected in human HeLaP4 cells assessed as inhibition of viral replication after 5 days by beta-galactosidase reporter assay; format: functional, organism-based
[28] = molecular target: Human immunodeficiency virus type 1 reverse transcriptase (Human immunodeficiency virus 1) (UniProt Q72547); test: Noncovalent binding affinity to wild type recombinant HIV1 HXB2 reverse transcriptase by protein X-ray crystallography analysis
[29] = organism: Homo sapiens; test: Inhibition of human central benzodiazepine receptor at up to 10 uM
[30] = system: HepG2; test: Inhibition of DNA synthesis in human HepG2 cells assessed as [3H]-thymidine incorporation at up to 10 uM; format: functional, cell-based
[31] = molecular target: 5-hydroxytryptamine receptor 1A (Homo sapiens) (UniProt P08908); test: Inhibition of human 5-HT1A receptor at up to 10 uM
5-hydroxytryptamine receptor 1A (Homo sapiens), sequence (P08908 whole entry): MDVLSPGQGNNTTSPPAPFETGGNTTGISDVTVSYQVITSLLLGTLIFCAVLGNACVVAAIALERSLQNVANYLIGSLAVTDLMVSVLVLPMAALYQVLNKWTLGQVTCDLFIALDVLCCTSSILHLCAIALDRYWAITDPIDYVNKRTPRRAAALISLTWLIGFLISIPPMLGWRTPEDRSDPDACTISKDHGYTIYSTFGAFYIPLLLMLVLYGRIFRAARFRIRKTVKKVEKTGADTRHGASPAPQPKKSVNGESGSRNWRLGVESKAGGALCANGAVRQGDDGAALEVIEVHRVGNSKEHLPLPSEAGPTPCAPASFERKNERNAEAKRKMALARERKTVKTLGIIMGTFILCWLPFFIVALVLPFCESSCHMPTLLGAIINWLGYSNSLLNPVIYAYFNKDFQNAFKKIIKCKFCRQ

[32] = system: Human immunodeficiency virus 1; format: functional, organism-based; conditions: NL4-3, HeLaP4; remark: listed apart in the source
[33] = system: Human immunodeficiency virus 1; test: Antiviral activity against HIV1 NL4-3 harboring reverse transcriptase K101E mutant infected in human HeLaP4 cells assessed as inhibition of viral replication after 5 days by beta-galactosidase reporter assay; format: functional, organism-based
[34] = system: Human immunodeficiency virus 1; test: Ratio of EC50 for wild type HIV1 NL4-3 to EC50 for HIV1 NL4-3 harboring reverse transcriptase F227L mutant; format: functional
[35] = system: Human immunodeficiency virus 1; test: Antiviral activity against HIV1 NL4-3 harboring reverse transcriptase P236L mutant infected in human HeLaP4 cells assessed as inhibition of viral replication after 5 days by beta-galactosidase reporter assay; format: functional, organism-based
[36] = molecular target: T1, Human immunodeficiency virus type 1 reverse transcriptase; test: Inhibition of HIV1 reverse transcriptase activity by primer extension assay
[37] = system: Human immunodeficiency virus 1; test: Antiviral activity against HIV1 NL4-3 harboring reverse transcriptase Y181I mutant infected in human HeLaP4 cells assessed as inhibition of viral replication after 5 days by beta-galactosidase reporter assay; format: functional, organism-based
[38] = molecular target: Glutamate [NMDA] receptor (Homo sapiens) (UniProt Q05586+Q12879+Q13224+O15399+O60391+Q14957+Q8TCU5); test: Inhibition of human NMDA receptor at up to 10 uM
[39] = system: Human immunodeficiency virus 1; test: Antiviral activity against HIV1 NL4-3 harboring reverse transcriptase V106A mutant infected in human HeLaP4 cells assessed as inhibition of viral replication after 5 days by beta-galactosidase reporter assay; format: functional, organism-based
[40] = system: Human immunodeficiency virus 1; test: Ratio of EC50 for wild type HIV1 NL4-3 to EC50 for HIV1 NL4-3 harboring reverse transcriptase M184V mutant; format: functional
[41] = system: Human immunodeficiency virus 1; test: Ratio of EC50 for wild type HIV1 NL4-3 to EC50 for HIV1 NL4-3 harboring reverse transcriptase E138K mutant; format: functional

Amine oxidase [flavin-containing] B, sequence (P27338 whole entry): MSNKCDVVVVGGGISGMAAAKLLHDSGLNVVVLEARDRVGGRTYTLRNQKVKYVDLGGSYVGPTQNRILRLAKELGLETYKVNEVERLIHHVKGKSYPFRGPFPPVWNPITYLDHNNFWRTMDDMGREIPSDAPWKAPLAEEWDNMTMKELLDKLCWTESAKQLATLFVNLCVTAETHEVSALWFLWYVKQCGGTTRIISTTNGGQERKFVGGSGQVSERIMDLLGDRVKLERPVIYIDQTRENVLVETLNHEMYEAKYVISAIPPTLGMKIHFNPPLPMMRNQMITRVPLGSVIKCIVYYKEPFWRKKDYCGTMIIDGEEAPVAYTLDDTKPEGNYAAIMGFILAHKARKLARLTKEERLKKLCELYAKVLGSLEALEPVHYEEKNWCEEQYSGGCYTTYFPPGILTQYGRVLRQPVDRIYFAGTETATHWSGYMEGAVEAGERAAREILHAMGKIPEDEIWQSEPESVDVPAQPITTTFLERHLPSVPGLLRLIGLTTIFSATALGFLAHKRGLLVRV

CCc1nn(CCO)c(CC)c1Oc1cc(C#N)cc(C#N)c1 [LERSIVIRINE]
10: Ratio EC50 [7] | Ratio EC50 [15] | Ratio EC50 [23] | Ratio EC50 [34] | Ratio EC50 [40] | Ratio EC50 [41]
>200: Ratio EC50 [11]
96900 nM: CC30 [3]
Not Active: inhibition (INH) [1]
inactive: inhibition [4] | inhibition [6] | inhibition [10] | inhibition [13] | inhibition [14] | inhibition [18] | inhibition [19] | inhibition [20] | inhibition [21] | inhibition [29] | inhibition [30] | inhibition [31] | inhibition [38]
5: fold change (FC) [26]
118 nM: IC50 [36]
117 nM: Ki [16]
3.96 nM: EC50 [17]
0.6: fold change (FC) [8]
3000 nM: IC50 [2]
active: inhibition [5] | inhibition [9] | inhibition [12] | inhibition [22] | inhibition [24] | inhibition [25] | inhibition [27] | Activity [28] | inhibition [32] | inhibition [33] | inhibition [35] | inhibition [37] | inhibition [39]
